Experimental data published in patent US20230382904A1, “SUBSTITUTED 4-([1,2,4]TRIAZOLO[1,5-a]PYRIDIN-6-YL)THIOPHENE-2-CARBOXAMIDE DERIVATIVES AND USE THEREOF” (The Johns Hopkins University, priority 2020, published 2023).

Experiments:
[1] = biological target: DLK (Homo sapiens (Human), UniProt Q12852); experiment: DLK biochemical assay (TR-FRET, MKK7 phosphorylation)
Method in brief: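 Catalytic-domain DLK (10 nM) phosphorylates His-MKK7 (15 nM) with 60 μM ATP, 90 min at RT, in pH 7.5 HEPES buffer. Phospho-T275/S277 read by TR-FRET (Eu anti-phospho donor, XL665 anti-His acceptor) after 16 h detection, at 37° C. in 1536 or 4° C. in 384 format.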

[2] = biological target: LZK (Homo sapiens (Human), UniProt O43283); experiment: LZK biochemical assay (TR-FRET, MKK7 phosphorylation)
LZK, sequence (O43283 168-409): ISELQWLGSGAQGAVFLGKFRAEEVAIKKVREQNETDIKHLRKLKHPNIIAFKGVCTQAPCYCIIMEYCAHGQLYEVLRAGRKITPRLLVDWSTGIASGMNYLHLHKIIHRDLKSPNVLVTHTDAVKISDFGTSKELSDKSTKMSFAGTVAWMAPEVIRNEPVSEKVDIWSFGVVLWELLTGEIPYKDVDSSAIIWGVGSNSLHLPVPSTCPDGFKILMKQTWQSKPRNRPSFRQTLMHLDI
Method in brief: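 Catalytic-domain LZK (10 nM) phosphorylated His-MKK7 (15 nM) with 15 μM ATP for 90 min at RT. Phospho-T275/S277 detected by Eu-anti-phospho-MKK7/XL665-anti-His TR-FRET after 16 h at 32° C, using the 665/Eu ratio. Buffer: 50 mM Hepes pH 7.5, 10 mM MgCl2, 1 mM DTT.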

DLK, sequence (Q12852 1-520): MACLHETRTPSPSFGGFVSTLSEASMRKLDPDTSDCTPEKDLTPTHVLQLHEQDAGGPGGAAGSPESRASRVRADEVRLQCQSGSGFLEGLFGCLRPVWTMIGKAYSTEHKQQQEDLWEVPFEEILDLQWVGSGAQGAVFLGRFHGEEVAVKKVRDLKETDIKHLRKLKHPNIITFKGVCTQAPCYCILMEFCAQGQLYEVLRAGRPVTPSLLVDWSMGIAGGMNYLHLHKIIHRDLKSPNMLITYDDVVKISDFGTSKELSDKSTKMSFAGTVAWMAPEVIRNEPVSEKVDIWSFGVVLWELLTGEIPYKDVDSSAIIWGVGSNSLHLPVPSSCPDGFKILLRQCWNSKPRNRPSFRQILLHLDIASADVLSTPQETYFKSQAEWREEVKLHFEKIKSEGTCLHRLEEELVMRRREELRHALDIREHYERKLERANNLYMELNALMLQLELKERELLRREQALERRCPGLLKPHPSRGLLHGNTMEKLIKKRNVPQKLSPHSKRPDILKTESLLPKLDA

IC50 [1]	IC50 [2]	Structure (SMILES)
8.1 nM	115 nM	CC[C@H](NC(=O)c1cc(-c2cc(-c3nnc([C@@H](C)CO)s3)c3nc(N)nn3c2)cs1)c1ccc(F)cc1 [Compound 401]
5.5 nM	120 nM	COC[C@H](NC(=O)c1cc(-c2cc(C(=O)N[C@H]3CCOC3)c3nc(N)nn3c2)cs1)c1ccc(F)cc1 [Compound 139]
4.6 nM	42 nM	CC[C@H](NC(=O)c1cc(-c2cc(C(=O)NC(C)CF)c3nc(N)nn3c2)cs1)c1ccc(F)cc1 (stereo partly drawn) [Compound 144-1]
640 nM	8700 nM	Nc1nc2cc(-c3csc(C(=O)NCc4ccc(F)cc4)c3)ccn2n1 [Compound 363]
670 nM	5000 nM	CCOc1ccccc1CNC(=O)c1cc(-c2ccc3nc(N)nn3c2)cs1 [Compound 226]
10 nM	240 nM	CC[C@H](C)NC(=O)c1cc(-c2csc(C(=O)N[C@H](CC)c3ccc(F)cc3)c2)cn2nc(N)nc12 [Compound 133]
2.9 nM	16 nM	CC[C@H](C)NC(=O)c1cc(-c2csc(C(=O)N[C@@H](COC)c3ccc(F)cc3)c2)cc2nc(N)nn12 [Compound 159]
980 nM	3400 nM	CC[C@@H](NC(=O)c1cc(-c2csc(C(=O)NCc3ccc(F)cc3)c2)cn2nc(N)nc12)C(F)(F)F [Compound 126]
30000 nM	30000 nM	CC(NC(=O)c1cc(-c2ccc3nc(N)nn3c2)cs1)c1ccc(C(C)(C)C)cc1 (stereo not drawn) [Compound 348]
21 nM	400 nM	CC(C)NC(=O)c1cc(-c2csc(C(=O)NC3CCCCC3)c2)cn2nc(N)nc12 [Compound 12]
2.9 nM	83 nM	CC(C)NC(=O)c1cc(-c2csc(C(=O)NC3(c4ccc(F)cc4)CCCC3)c2)cn2nc(N)nc12 [Compound 123]
22 nM	130 nM	CC(NC(=O)c1cc(-c2csc(C(=O)N[C@@H](C)c3ccccc3)c2)cn2nc(N)nc12)C(F)(F)F (mixture of isomers) [Compound 43]
640 nM	12000 nM	CC(NC(=O)c1cc(-c2ccc3nc(N)nn3c2)cs1)c1cnn(C)c1 (stereo not drawn) [Compound 330]
280 nM	9300 nM	Cc1cc(-c2csc(C(=O)NC3CCCCC3)c2)cn2nc(N)nc12 [Compound 374]
440 nM	> 30000 nM	CCc1ccccc1NC(=O)c1cc(-c2ccc3nc(N)nn3c2)cs1 [Compound 278]
745 nM	7600 nM	CC(C)c1csc(CNC(=O)c2cc(-c3ccc4nc(N)nn4c3)cs2)n1 [Compound 249]
210 nM	5200 nM	CC(C)NC(=O)c1cc(-c2csc(C(=O)N[C@@H](C)c3ccc(OC(F)(F)F)cc3)c2)cn2nc(N)nc12 [Compound 118]
2150 nM	4350 nM	CCC(C)c1nnc(-c2cc(-c3csc(C(=O)NCc4ccc(F)cc4)c3)cn3nc(N)nc23)s1 (stereo not drawn) [Compound 400]
1.7 nM	30.5 nM	CC[C@H](NC(=O)c1cc(-c2cc(C(=O)N[C@@H]3CCOC3)c3nc(N)nn3c2)cs1)c1ccccc1 [Compound 104]
500 nM	2300 nM	Cc1cc(-c2csc(C(=O)NCc3ccc(F)cc3)c2)cn2nc(N)nc12 [Compound 371]

IC50 [1]	IC50 [2]	Structure (SMILES)
670 nM	13000 nM	Cc1cccc(C)c1NC(=O)c1cc(-c2ccn3nc(N)nc3c2)cs1 [Compound 368]
550 nM	28000 nM	Nc1nc2ccc(-c3csc(C(=O)NCc4cccnc4)c3)cn2n1 [Compound 206]
60 nM	1100 nM	COC[C@H](C)NC(=O)c1cc(-c2csc(C(=O)N[C@@H](C)c3ccc(F)cc3)c2)cn2nc(N)nc12 [Compound 69]
505 nM	3100 nM	Nc1nc2ccc(-c3csc(C(=O)NCc4ccccc4Cl)c3)cn2n1 [Compound 219]
600 nM	> 30000 nM	Nc1nc2ccc(-c3csc(C(=O)Nc4ccccc4OC(F)(F)F)c3)cn2n1 [Compound 286]
9.7 nM	300 nM	CC[C@H](NC(=O)c1cc(-c2cc(C(=O)NC3CCC3)c3nc(N)nn3c2)cs1)c1ccc(F)cc1 [Compound 137]
355 nM	> 30000 nM	COc1cccc([C@H](C)NC(=O)c2cc(-c3ccc4nc(N)nn4c3)cs2)c1 [Compound 263]
530 nM	> 30000 nM	Nc1nc2ccc(-c3csc(C(=O)NCCc4c(F)cccc4Cl)c3)cn2n1 [Compound 283]
4.75 nM	34 nM	CC[C@H](C)NC(=O)c1cc(-c2csc(C(=O)N[C@@H](C)c3ccc(F)cc3)c2)cn2nc(N)nc12 [Compound 94, 2-Amino-N-[(2S)-butan-2-yl]-6-(5-{[(1S)-1-(4-fluorophenyl)ethyl]carbamoyl}thiophen-3-yl)[1,2,4]triazolo[1,5-a]pyridine-8-carboxamide]
2000 nM	> 30000 nM	CCN1CCCC(NC(=O)c2cc(-c3ccc4nc(N)nn4c3)cs2)C1 (stereo not drawn) [Compound 180]
560 nM	> 30000 nM	C[C@H]1CCC[C@@H](NC(=O)c2cc(-c3ccc4nc(N)nn4c3)cs2)C1 (single isomer, unassigned) [Compound 200]
630 nM	16000 nM	Nc1nc2ccc(-c3csc(C(=O)NCc4ccco4)c3)cn2n1 [Compound 275]
1990 nM	4400 nM	Cn1nccc1CNC(=O)c1cc(-c2ccc3nc(N)nn3c2)cs1 [Compound 255]
710 nM	6950 nM	Nc1nc2ccc(-c3csc(C(=O)NCc4ccc(Cl)cc4)c3)cn2n1 [Compound 225]
210 nM	> 30000 nM	CC(NC(=O)c1cc(-c2ccc3nc(N)nn3c2)cs1)c1ccc(OCC(F)F)cc1 (stereo not drawn) [Compound 357]
220 nM	4300 nM	Cc1cccc2oc(CNC(=O)c3cc(-c4ccc5nc(N)nn5c4)cs3)nc12 [Compound 304]
29.5 nM	330 nM	Nc1nc2c(C(=O)NC3CCC3)cc(-c3csc(C(=O)NCc4ccc(F)cc4)c3)cn2n1 [Compound 58]
380 nM	> 30000 nM	COc1cccc(CNC(=O)c2cc(-c3cc(F)c4nc(N)nn4c3)cs2)c1 [Compound 381]
480 nM	18000 nM	Nc1nc2ccc(-c3csc(C(=O)NCc4ccoc4)c3)cn2n1 [Compound 277]
200 nM	1700 nM	COC[C@H](C)NC(=O)c1cc(-c2csc(C(=O)NCc3ccccc3)c2)cn2nc(N)nc12 [Compound 67]

IC50 [1]	IC50 [2]	Structure (SMILES)
390 nM	14000 nM	Nc1nc2ccc(-c3csc(C(=O)NCc4ccc5c(c4)OCO5)c3)cn2n1 [Compound 295]
72 nM	790 nM	CC[C@H](NC(=O)c1cc(-c2cc(C(=O)NC3(CO)CC3)c3nc(N)nn3c2)cs1)c1ccc(F)cc1 [Compound 140]
1100 nM	> 30000 nM	Nc1nc2ccc(-c3csc(C(=O)NC4CCCCC4)c3)cn2n1 [Compound 169]
20.5 nM	235 nM	Nc1nc2c(C(=O)NC3CCC3)cc(-c3csc(C(=O)NCc4ccccc4)c3)cn2n1 [Compound 52]
69 nM	630 nM	COCCNC(=O)c1cc(-c2csc(C(=O)NCc3ccc(F)cc3)c2)cn2nc(N)nc12 [Compound 24]
8.9 nM	110 nM	CC[C@H](C)NC(=O)c1cc(-c2csc(C(=O)NC3(c4ccc(F)cc4)CCCC3)c2)cn2nc(N)nc12 [Compound 143]
16 nM	140 nM	CC(C)NC(=O)c1cc(-c2csc(C(=O)N[C@H](C)c3ccccc3)c2)cn2nc(N)nc12 [Compound 97]
92 nM	2100 nM	C[C@H](NC(=O)c1cc(-c2cc(C(=O)NC3CCNC3)c3nc(N)nn3c2)cs1)c1ccccc1 (single isomer, unassigned) [Compound 57]
7.5 nM	120 nM	C[C@H](NC(=O)c1cc(-c2cc(C(=O)N[C@H](CO)C(F)(F)F)c3nc(N)nn3c2)cs1)c1ccc(F)cc1 [Compound 109]
2100 nM	> 30000 nM	Nc1nc2ccc(-c3csc(C(=O)NCc4ccc(OCCN5CCCCC5)cc4)c3)cn2n1 [Compound 279]
2600 nM	> 30000 nM	Nc1nc2ccc(-c3csc(C(=O)NC4CC4)c3)cn2n1 [Compound 172]
250 nM	23000 nM	COC(=O)c1cccc(CNC(=O)c2cc(-c3ccc4nc(N)nn4c3)cs2)c1 [Compound 280]
530 nM	> 30000 nM	Nc1nc2ccc(-c3csc(C(=O)NCC4CCCC4)c3)cn2n1 [Compound 190]
130 nM	> 30000 nM	Nc1nc2ccc(-c3csc(C(=O)NC(c4ccccc4)C4CC4)c3)cn2n1 (stereo not drawn) [Compound 347]
47 nM	1400 nM	C[C@H](NC(=O)c1cc(-c2cc(C(=O)NC3CC3)c3nc(N)nn3c2)cs1)c1ccccc1 [Compound 44]
430 nM	9200 nM	COc1cccc(CNC(=O)c2cc(-c3cc(C)c4nc(N)nn4c3)cs2)c1 [Compound 372]
220 nM	660 nM	Nc1nc2c(C(=O)NC3CNC3)cc(-c3csc(C(=O)NCc4ccc(F)cc4)c3)cn2n1 [Compound 113]
28 nM	110 nM	CC(C)NC(=O)c1cc(-c2csc(C(=O)NCc3ccccc3)c2)cc2nc(N)nn12 [Compound 149]
84 nM	1100 nM	CCNC(=O)c1cc(-c2csc(C(=O)NCc3cccc(OC)c3)c2)cn2nc(N)nc12 [Compound 6]
140 nM	5700 nM	CC[C@H](NC(=O)c1cc(-c2cc(-c3cnn(CC(F)(F)F)c3)c3nc(N)nn3c2)cs1)c1ccc(F)cc1 [Compound 403]
